Data from patent publication US5296597A, “Amide derivatives of Partricin A & Partricin B” (SPA Societa' Prodotti Antibiotici S.P.A., priority 1989, dated 1994).
Converted amounts (≈) assume the structure as drawn. Like-named read-outs stand apart in the source and are kept apart here.

Columns and labels:
rat erythrocytes = assay: hemolytic power on rat erythrocytes; format: cell-based; details: for hemolytic activity, times less than unreacted partricins: relative to unreacted partricins; for EC (concentration that causes hemoglobin liberation of 50% of the total amount): rat erythrocytes, 2% suspension in BSA Ringer, 1 hour at 36, average of 2-5 experiments
Procedure: A further important evaluation parameter was the helomytic power: rat erytrocytes were suspended at a 2% concentration in Ringer solution containing 0.2% of bovine serum albumin, fraction V (BSA) and incubated for 1 hour at 36° C. in the presence of various amounts of the amides being investigated.

Trichomonas vaginalis = assay: antiprotozoal activity, MIC on Trichomonas vaginalis; format: cell-based; details: T. vaginalis n. 6; CPLM culture medium, 72 hours; average of 2-5 experiments
Candida albicans = assay: antimycotic activity, minimum inhibitory concentration (MIC) on Candida albicans, liquid and solid medium; format: cell-based; details: candida albicans n. 37, 24 hours, average of 2-5 experiments
Procedure: (b) Sabouraud fluid medium, 24 hours at
(c) Sabouraud fluid medium + agar, 24 hours at […]

Saccharomyces cerevisiae = assay: growth inhibition of Saccharomyces cerevisiae culture (turbidimetric); format: cell-based; details: S. cerevisiae n. 167; PYG culture medium, 6 hours at 36; average of 2-5 experiments
[1] = background statement, in words; cited from earlier work
[2] = background statement, in words; cited from earlier work; remark: listed apart in the source
[3] = system: yeasts, such as Candida albicans; details: background statement, in words; cited from earlier work
water solubility and pH = format: physicochemical
[4] = Sabouraud fluid medium + agar (solid)

Compound | MIC (Trichomonas vaginalis) [ng/mL] | MIC (Candida albicans; [4]) [ng/mL] | MIC (Candida albicans; Sabouraud fluid medium) [ng/mL] | IC50 (Saccharomyces cerevisiae) [ng/mL] | EC (concentration that causes hemoglobin liberation of 50% of the total amount) (rat erythrocytes) [µg/mL] | also measured
2-dimethylaminoethyl amide |  |  |  |  |  | hemolytic activity, times less than unreacted partricins (rat erythrocytes): 25-80 times less
Partricin n-dodecyl amide [P. n-dodecyl amide] | > 10000 | 800 | 450 | 50 | > 32 | 
mepartricin |  |  |  |  |  | action selectivity [1]: greater action selectivity; toxicity [1]: reduced toxicity, but still exhibits marked toxic effects; water solubility [2]: insufficient water solubility; antimycotic activity [3]: increased antimycotic activity
partricin A methyl amide [P.A methyl amide] | 250 | 8 | 5 | 0.7 | 8 | 
methyl amide |  |  |  |  |  | hemolytic activity, times less than unreacted partricins (rat erythrocytes): 25-80 times less
3-dimethylaminopropyl amide |  |  |  |  |  | hemolytic activity, times less than unreacted partricins (rat erythrocytes): 25-80 times less
partricin A 2-dimethylaminoethylamide [P.A 2-dimethyl-aminoethyl amide] | 500 | 8 | 2 | 0.4 | 25 | 
COC(=O)C1C(O)CC2(O)CC(O)CC(O)C(O)CCC(O)CC(O)CC(=O)OC(C)C(C)C(O)C(C)C=CC=CC=CC=CC=CC=CC=CC(OC3OC(C)C(O)C(N)C3O)CC1O2 (stereo not drawn) [amphotericin B methyl ester] |  |  |  |  |  | toxicity [1]: severe neurotoxic effects
Partricin A allyl amide [P.A allyl amide] | 250 | 10 | 6 | 0.8 |  | 
Partricin A n-propyl amide [P.A n-propyl amide] | 500 | 16 | 8 | 1 |  | 
Partricin A n-pentyl amide [P.A n-penthyl amide] | 2000 | 80 | 20 | 3 |  | 
CC1/C=C/C=C/C=C/C=C/C=C/C=C/C=C/C(O[C@H]2O[C@@H](C)[C@H](O)[C@@H](N)[C@H]2O)CC2OC(O)(CC(O)CC(O)CC(O)CC(O)CC(=O)CC(O)CC(=O)OC1C(C)CCC(O)CC(=O)c1ccc(N)cc1)CC(O)C2C(=O)O (stereo partly drawn) [Partricin B (P.B), reference compound] | 250 (≈ 0.225 µM) | 40 | 40 (≈ 0.0359 µM) | 5 (≈ 0.00449 µM) |  | 
Partricin A ethyl amide [P.A ethyl amide] | 500 | 10 | 9 | 1 |  | 
Partricin methyl amide [P. methy amide] | 250 | 7 | 5 | 1 | 7.5 | 
partricin A 2-dimethylaminoethyl amide diaspartate |  |  |  |  |  | water solubility (water solubility and pH; in words): water-soluble; pH (reaction of the salt) (water solubility and pH; slightly acidic reaction): ~5
Partricin B 2-dimethylaminoethyl amide [P.B 2-dimethyl-aminoethyl-amide] | 500 | 10 | 3 | 1 |  | 
Partricin A N'-methyl-piperazide [P.A N'-methyl-piperazide] | 500 | 4 | 1 | 0.4 |  | 
Partricin 3-dimethylaminopropyl amide [P. 3-dimethyl-aminopropyl amide] | 500 | 16 | 10 | 1 | 17 | 
Partricin B methyl amide [P.B methyl amide] | 250 | 8 | 7 | 1 |  | 
Partricin A 3-dimethylaminopropyl amide [P.A 3-dimethyl-aminopropyl amide] | 500 | 8 | 3 | 0.5 | 20 | 
